Results from patent publication US6548096B1, “Aspartyl dipeptide ester derivatives and sweeteners” (Ajinomoto Co., Inc., priority 1998, dated 2003).
Where two headings read alike, the source gives them in different places.

Legend:
[1] = Sensory evaluation of sweetening potency relative to sugar; type: in vivo; details: for Sweetening potency (relative to sugar): times that of sugar, sensory evaluation; for sweetening potency: Relative to sweetening potency of a 4% sucrose aqueous solution
From the text: For example, the sweetening potency of N-[N-[3(3-methyl-4-hydroxyphenyl)propyl]-L-α-aspartyl]-L-phenylalanine 1-methyl ester was approximately 35,000 times that of sugar; that of N-[N-[3-(2-hydroxy-4-methylphenyl)propyl]-L-α-aspartyl]-L-α-phenylalanine 1-methyl ester was approximately 30,000 times that of sugar; that of N-[N-[3-(3-hydroxy-4-methoxyphenyl)propyl]-L-α-aspartyl]-L-phenylalanine 1-methyl ester was approximately 20,000 times that of sugar; that of N-[N-[3-(2-hydroxy-4-methoxyphenyl)propyl]-L-α-aspartyl]-L-phenylalanine 1-methyl ester was approximately 20,000 times that of sugar; that of N-[N-[3-(3-hydroxy-4-methylphenyl)propyl]-L-α-aspartyl]-L-phenylalanine 1-methyl ester was approximately 15,000 times that of sugar; that of N-(N-(3-(3-hydroxyphenyl)propyl]-L-α-aspartyl]-L-phenylalanine 1-methyl ester was approximately 8,000 times that of sugar; that of N-[N-(3-(4-methoxyphenyl)propyl]-L-α-aspartyl]-L-phenylalanine 1-methyl ester was approximately 6,500 times that of sugar; and that of N-(N-[3-(3-hydroxy-4-methoxyphenyl)propyl]-L-α-aspartyl]-L-tyrosine 1-methyl ester was approximately 16,000 times that of sugar.
The structures and the results of the sensory evaluation of aspartyl dipeptide derivatives represented by formula (2) are shown in Table 1. [drawing 3]

[2] = as reported in WO 94/11391 (U.S. Pat. No. 5,480,668); cited from earlier work

| SMILES | Sweetening potency (relative to sugar) [1] | sweetening potency [1] | further results |
| --- | --- | --- | --- |
| COC(=O)[C@H](Cc1ccccc1)NC(=O)[C@H](CC(=O)O)NCCCc1ccc(OC)cc1O | approximately 20,000 times | – | – |
| COC(=O)[C@H](Cc1ccccc1)NC(=O)[C@H](CC(=O)O)NCCCc1ccc(OC)c(O)c1 | approximately 20,000 times | – | – |
| COC(=O)[C@H](Cc1ccccc1)NC(=O)[C@H](CC(=O)O)NCCCc1ccc(C)c(O)c1 | approximately 15,000 times | – | – |
| COC(=O)[C@H](Cc1ccccc1)NC(=O)[C@H](CC(=O)O)NCCCc1ccc(OC)c(O)c1 [Compound 1, N-[N-[3-(3-hydroxy-4-methoxyphenyl)propyl]-L-α-aspartyl]-L-phenylalanine 1-methyl ester] | – | 20000 | Sweetening potency (relative to sugar) ([1]; listed as Example 1): 20,000 times |
| COC(=O)[C@H](Cc1ccccc1)NC(=O)[C@H](CC(=O)O)NCCCc1ccc(OC)c(OC)c1 [Compound 2, N-[N-[3-(3,4-dimethoxyphenyl)propyl]-L-α-aspartyl]-L-phenylalanine 1-methyl ester] | 2,500 times | 2500 | – |
| COC(=O)[C@H](Cc1ccccc1)NC(=O)[C@H](CC(=O)O)NCCCc1ccc2c(c1)OCO2 [Compound 3, N-[N-[3-(3,4-methylenedioxyphenyl)propyl]-L-α-aspartyl]-L-phenylalanine 1-methyl ester] | 5,000 times | 5000 | – |
| COC(=O)[C@H](Cc1ccccc1)NC(=O)[C@H](CC(=O)O)NCCCc1ccc(O)cc1 [Compound 4, N-[N-[3-(4-hydroxyphenyl)propyl]-L-α-aspartyl]-L-phenylalanine 1-methyl ester] | 5,000 times | 5000 | – |
| COC(=O)[C@H](Cc1ccccc1)NC(=O)[C@H](CC(=O)O)NCCCc1ccc(OC)cc1 [Compound 5, N-[N-[3-(4-methoxyphenyl)propyl]-L-α-aspartyl]-L-phenylalanine 1-methyl ester] | – | 6500 | Sweetening potency (relative to sugar) ([1]; listed as Example 5): 6,500 times; Sweetening potency (relative to sugar) ([1]; listed as N-[N-(3-(4-methoxyphenyl)propyl]-L-α-aspartyl]-L-phenylalanine 1-methyl ester)): approximately 6,500 times |
| CCOc1ccc(CCCN[C@@H](CC(=O)O)C(=O)N[C@@H](Cc2ccccc2)C(=O)OC)cc1 [Compound 6, N-[N-[3-(4-Ethoxyphenyl)propyl]-L-α-aspartyl]-L-phenylalanine 1-Methyl Ester] | 1,500 times | 1500 | – |
| COC(=O)[C@H](Cc1ccccc1)NC(=O)[C@H](CC(=O)O)NCCCc1cccc(O)c1 [Compound 7, N-[N-[3-(3-hydroxyphenyl)propyl]-L-α-aspartyl]-L-phenylalanine 1-methyl ester] | approximately 8,000 times | 8000 | Sweetening potency (relative to sugar) ([1]; listed as Example 8): 8,000 times |
| COC(=O)[C@H](Cc1ccccc1)NC(=O)[C@H](CC(=O)O)NCCCc1cccc(OC)c1 [Compound 8, N-[N-[3-(3-Methoxyphenyl)propyl]-L-α-aspartyl]-L-phenylalanine 1-Methyl Ester] | 3,500 times | 3500 | – |
| COC(=O)[C@H](Cc1ccc(O)cc1)NC(=O)[C@H](CC(=O)O)NCCCc1ccc(OC)c(O)c1 [Compound 9, N-[N-[3-(3-hydroxy-4-methoxyphenyl)propyl]-L-α-aspartyl]-L-tyrosine 1-methyl ester] | approximately 16,000 times | 16000 | Sweetening potency (relative to sugar) ([1]; listed as Example 10): 16,000 times |
| COC(=O)[C@H](Cc1ccccc1)NC(=O)[C@H](CC(=O)O)NCCCc1ccc(OC)cc1O [Compound 10, N-[N-[3-(2-hydroxy-4-methoxyphenyl)propyl]-L-α-aspartyl]-L-phenylalanine 1-methyl ester] | – | 20000 | Sweetening potency (relative to sugar) ([1]; listed as Example 11): 20,000 times |
| COC(=O)[C@H](Cc1ccccc1)NC(=O)[C@H](CC(=O)O)NCCCc1cccc(OC)c1O [Compound 11, N-[N-[3-(2-hydroxy-3-methoxyphenyl)propyl]-L-α-aspartyl]-L-phenylalanine 1-methyl ester] | 10,000 times | 10000 | – |
| COC(=O)[C@H](Cc1ccccc1)NC(=O)[C@H](CC(=O)O)NCCCc1cc(OC)ccc1O [Compound 12, N-[N-[3-(2-hydroxy-5-methoxyphenyl)propyl]-L-α-aspartyl]-L-phenylalanine 1-methyl ester] | 1,500 times | 1500 | – |
| COC(=O)[C@H](Cc1ccccc1)NC(=O)[C@H](CC(=O)O)NCCCc1ccc(C)cc1O [Compound 13, N-[N-[3-(2-hydroxy-4-methylphenyl)propyl]-L-α-aspartyl]-L-phenylalanine 1-methyl ester] | – | 30000 | Sweetening potency (relative to sugar) ([1]; listed as Example 14): 30,000 times; Sweetening potency (relative to sugar) ([1]; listed as N-[N-[3-(2-hydroxy-4-methylphenyl)propyl]-L-α-aspartyl]-L-α-phenylalanine 1-meth): approximately 30,000 times |
| COC(=O)[C@H](Cc1ccccc1)NC(=O)[C@H](CC(=O)O)NCCCc1ccc(OC)cc1OC [Compound 14, N-[N-[3-(2,4-dimethoxyphenyl)propyl]-L-α-aspartyl]-L-phenylalanine 1-methyl ester] | 4,000 times | 4000 | – |
| CCOc1cc(OC)ccc1CCCN[C@@H](CC(=O)O)C(=O)N[C@@H](Cc1ccccc1)C(=O)OC [Compound 15, N-[N-[3-(2-Ethoxy-4-methoxyphenyl)propyl]-L-α-aspartyl]-L-phenylalanine 1-Methyl Ester] | 2,500 times | 2500 | – |
| COC(=O)[C@H](Cc1ccccc1)NC(=O)[C@H](CC(=O)O)NCCCc1ccc(O)c(C)c1 [Compound 16, N-[N-[3-(3-methyl-4-hydroxyphenyl)propyl]-L-α-aspartyl]-L-phenylalanine 1-methyl ester] | approximately 35,000 times | 35000 | Sweetening potency (relative to sugar) ([1]; listed as Example 17): 35,000 times |
| COC(=O)[C@H](Cc1ccccc1)NC(=O)[C@H](CC(=O)O)NCCCc1ccc(C)c(O)c1 [Compound 17, N-[N-[3-(3-hydroxy-4-methylphenyl)propyl]-L-α-aspartyl]-L-phenylalanine 1-methyl ester] | – | 15000 | Sweetening potency (relative to sugar) ([1]; listed as Example 18): 15,000 times |
| COC(=O)[C@H](Cc1ccccc1)NC(=O)[C@H](CC(=O)O)NCCCc1ccc(OC)c(C)c1 [Compound 18, N-[N-[3-(3-methyl-4-methoxyphenyl)propyl]-L-α-aspartyl]-L-phenylalanine 1-methyl ester] | 8,000 times | 8000 | – |
| COC(=O)[C@H](Cc1ccccc1)NC(=O)[C@H](CC(=O)O)NCCCc1cc(OC)cc(OC)c1 [Compound 19, N-[N-[3-(3,5-dimethoxyphenyl)propyl]-L-α-aspartyl]-L-phenylalanine 1-methyl ester] | 800 times | 800 | – |
| COC(=O)[C@H](Cc1ccccc1)NC(=O)[C@H](CC(=O)O)NCCCc1ccc(OCCO)cc1 [Compound 20, N-[N-[3-(4-(2-Hydroxyethoxy)phenyl)propyl]-L-α-aspartyl]-L-phenylalanine 1-Methyl Ester] | 1,000 times | 1000 | – |
| COC(=O)[C@H](Cc1ccccc1)NC(=O)[C@H](CC(=O)O)NCCCc1ccc(C)cc1 [Compound 21, N-[N-[3-(4-Methylphenyl)propyl]-L-α-aspartyl]-L-phenylalanine 1-Methyl Ester] | 4,000 times | 4000 | – |
| COC(=O)[C@H](Cc1ccccc1)NC(=O)[C@H](CC(=O)O)NCCC(C)(C)C [N-[N-(3,3-dimethylbutyl)-L-α-aspartyl]-L-phenylalanine 1-methyl ester] | – | – | sweetening potency [2]: 10,000 times that of sugar |
| COC(=O)[C@H](Cc1ccccc1)NC(=O)[C@H](CC(=O)O)NCCCc1ccccc1 [N-[N-(3-phenylpropyl)-L-α-aspartyl]-L-phenylalanine-1-methyl ester] | – | – | sweetening potency [2]: 1,500 times that of sugar |
| COC(=O)[C@H](Cc1ccccc1)NC(=O)[C@H](CC(=O)O)NCCCc1ccc(O)c(OC)c1 [N-[N-[3-(3-methoxy-4-hydroxyphenyl)propyl]-L-α-aspartyl]-L-phenylalanine 1-methyl ester] | – | – | sweetening potency [2]: 2,500 times that of sugar |
